Test results reported in patent US10463040B2, “Composition comprising a pesticide and isononanoic acid N,N-dimethyl amide” (BASF SE, priority 2015, dated 2019).

How the values were obtained:
wheat and black bindweed = experiment: Phytotoxicity laboratory test: plants treated with 2 g of a 1% emulsion, evaluated visually after 3 days; assay type: in vivo
Experimental: No phytotoxicity in the context of the present invention means that in comparison to untreated plants, 0% of the treated plants have plant injury according to the phytotoxicity method described below.
Phytotoxicity in accordance with the present invention is determined by an assay where e.g. wheat (grasses) or black bindweed (broad leave), are treated with 2 g of a 1% Emulsion described below and are visually evaluated after 3 days of incubation. Plant injury covers the assessment of leave condition as well as resistance to lodging in case of grasses.
The emulsion is prepared by mixing 1% of concentrate with water. The concentrate consists of 7.5% of castor oil ethoxylate (30 EO), 2.5% Ca-Dodecylbenzolsulfonate and 90% carboxylic acid amide. The experimental period lasts for 3 days. During this time, the experimental plants receive optimum watering, with nutrients being supplied via the water used for watering.
The phytotoxicity is evaluated by awarding scores to the treated plants in comparison to untreated plants, i.e. treated with water only. The evaluation scale ranges from 0% to 100% phytotoxicity. The evaluation is done by visual examination. 0% phytotoxicity means that there are no differences between treated and untreated plants. […]
Plants, i.e. wheat and black bindweed, were treated with 2 g of a 1% Emulsion described below and were visually evaluated after 3 days of incubation. […]

[1] = Emulsion stability: 5% of the emulsion concentrate diluted in CIPAC water D, ml cream after 1, 2, 4 and 24 h; assay type: physicochemical; design: key to Emulsion 5% in Cipac D 2 h / Emulsion 5% in Cipac D 4 h / Emulsion 5% in Cipac D 1 h / Emulsion 5% in Cipac D 24 h: stable = no cream; details: for Emulsion 5% in Cipac D 1 h / Emulsion 5% in Cipac D 2 h / Emulsion 5% in Cipac D 4 h / Emulsion 5% in Cipac D 24 h: amide 63%; for Stability of the emulsion comprising the amide: summary in words of Example 4
Experimental: Stable in the context of the present invention means that no cream has formed within 24 hours after mixing components of a formulation. To measure the stability, 5% of the formulation (emulsion concentrate) is diluted in CIPAC water D in a 100 ml cylinder. The resulting oil-in-water emulsion is assessed after 1, 2, 4 and 24 hours.

[2] = Determination of the max. solubility of fungicide/herbicide in the carboxylic acid amide (quantitative 1H-NMR of supernatant); assay type: physicochemical
Experimental: The respective fungicide/herbicide was dissolved in the solvent of interest so that a supersaturated solution was obtained. The deposit was filtered off. The concentration of the fungicide/herbicide in the supernatant was determined via quantitative 1H-NMR spectroscopy.

[3] = Formulation: Oxyfluorfen 25%, Ca Dodecylbenzolsulfonat 2%, Castor oil ethoxylate (35 EO) 10%
[4] = Formulation: Oxyfluorfen 25%, Castor oil ethoxylate (35 EO) 12%
[5] = Formulation: Tebuconazol 25%, Ca Dodecylbenzolsulfonat 2%, Castor oil ethoxylate (35 EO) 10%
[6] = Formulation: Tebuconazol 25%, Castor oil ethoxylate (35 EO) 12%

Row | Emulsion 5% in Cipac D 1 h [1, 3] | Emulsion 5% in Cipac D 2 h [1, 3] | Emulsion 5% in Cipac D 4 h [1, 3] | Emulsion 5% in Cipac D 24 h [1, 3] | Emulsion 5% in Cipac D 1 h [1, 4] | Emulsion 5% in Cipac D 2 h [1, 4] | Emulsion 5% in Cipac D 4 h [1, 4] | Emulsion 5% in Cipac D 24 h [1, 4] | Emulsion 5% in Cipac D 1 h [1, 5] | Emulsion 5% in Cipac D 2 h [1, 5] | Emulsion 5% in Cipac D 4 h [1, 5] | Emulsion 5% in Cipac D 24 h [1, 5] | Emulsion 5% in Cipac D 1 h [1, 6] | Emulsion 5% in Cipac D 2 h [1, 6] | Emulsion 5% in Cipac D 4 h [1, 6] | Emulsion 5% in Cipac D 24 h [1, 6] | Stability of the emulsion comprising the amide [1] | Compound | further results
1 | stable | stable | stable | 0.5 ml cream | stable | stable | stable | stable | stable | stable | stable | 0.5 ml cream | stable | stable | 0.5 ml cream | 0.5 ml cream | stable | CC(CC(=O)N(C)C)CC(C)(C)C (stereo not drawn) [Isononanoic acid N,N-dimethylamide, isononanoic acid N,N-dimethylamide] | Phytotoxicity (wheat and black bindweed; 3 days after treatment, 1% emulsion of concentrate (7.5% castor oil ethoxylate (30 EO), 2.5% Ca-Dodecylbenzolsulfonate, 90% amide), wheat and black bindweed): 0 (0 means no damage); Phytotoxic effect on plants (wheat and black bindweed; statement in words in the description): no phytotoxic effect
2 | 0.5 ml cream | 3 ml cream | 4.0 ml cream | 6 ml cream | 0.5 ml cream | 1 ml cream | 4.0 ml cream | 6 ml cream | 3.0 ml cream | 8 ml cream | 8.0 ml cream | 8 ml cream | stable | 2 ml cream | 3.0 ml cream | 3 ml cream | unstable | CCCCCCCCC(=O)N(C)C [n-C9 N,N-dimethylamide] | Solubility [%] Oxyfluorfen [2]: 34%; Solubility [%] Pyraclostrobin [2]: 46%; Solubility [%] Tebuconazole [2]: 42%
